{"source": "ChEMBL document CHEMBL1671749", "about": "“blaROB-1 presence on pB1000 in Haemophilus influenzae is widespread, and variable cefaclor resistance is associated with altered penicillin-binding proteins” (2010)", "assay_type_in_all_cases": "functional", "key": {"Haemophilus influenzae [1]": {"system": "Haemophilus influenzae", "test": "Antibacterial activity against ROB-1 producing ICE- negative Haemophilus influenzae H62 by broth microdilution method"}, "Haemophilus influenzae [2]": {"system": "Haemophilus influenzae", "test": "Antibacterial activity against ROB-1 producing ICE- negative Haemophilus influenzae F41 by Etest method"}, "Haemophilus influenzae [3]": {"system": "Haemophilus influenzae", "test": "Antibacterial activity against ROB-1 and TEM-1 producing ICE- positive Haemophilus influenzae F48 by Etest method"}, "Haemophilus influenzae [4]": {"system": "Haemophilus influenzae", "test": "Antibacterial activity against ROB-1 producing ICE- positive Haemophilus influenzae F45 harboring D350N, V547I and N569S mutations in PBP3 by Etest method"}, "Haemophilus influenzae [5]": {"system": "Haemophilus influenzae", "test": "Antibacterial activity against ROB-1 producing ICE- positive Haemophilus influenzae F52 by broth microdilution method"}, "Haemophilus influenzae [6]": {"system": "Haemophilus influenzae", "test": "Antibacterial activity against ROB-1 producing ICE- negative Haemophilus influenzae Rd transformant harboring plasmid PB1000 by broth microdilution method"}, "Haemophilus influenzae [7]": {"system": "Haemophilus influenzae", "test": "Antibacterial activity against ROB-1 producing ICE- negative Haemophilus influenzae H23 by Etest method"}, "Haemophilus influenzae [8]": {"system": "Haemophilus influenzae", "test": "Antibacterial activity against ROB-1 producing ICE- positive Haemophilus influenzae F49 harboring D350N, V547I and N569S mutations in PBP3 by broth microdilution method"}, "Haemophilus influenzae [9]": {"system": "Haemophilus influenzae", "test": "Antibacterial activity against ROB-1 producing ICE- negative Haemophilus influenzae F50 by Etest method"}, "Haemophilus influenzae [10]": {"system": "Haemophilus influenzae", "test": "Antibacterial activity against ROB-1 and TEM-1 producing ICE- positive Haemophilus influenzae F49 harboring D350N, V547I and N569S mutations in PBP3 by Etest method"}, "Haemophilus influenzae [11]": {"system": "Haemophilus influenzae", "test": "Antibacterial activity against ROB-1 producing ICE- positive Haemophilus influenzae F47 by broth microdilution method"}, "Haemophilus influenzae [12]": {"system": "Haemophilus influenzae", "test": "Antibacterial activity against ROB-1 producing ICE- negative Haemophilus influenzae H23 by broth microdilution method"}, "Haemophilus influenzae [13]": {"system": "Haemophilus influenzae", "test": "Antibacterial activity against ROB-1 producing ICE- negative Haemophilus influenzae F41 by broth microdilution method"}, "Haemophilus influenzae [14]": {"system": "Haemophilus influenzae", "test": "Antibacterial activity against […] by Etest method"}, "Haemophilus influenzae [15]": {"system": "Haemophilus influenzae", "test": "Antibacterial activity against ROB-1 producing ICE- negative Haemophilus influenzae Rd transformant harboring plasmid PB1000 by Etest method"}, "Haemophilus influenzae [16]": {"system": "Haemophilus influenzae", "test": "Antibacterial activity against ROB-1 producing ICE- positive Haemophilus influenzae F45 harboring D350N, V547I and N569S mutations in PBP3 by broth microdilution method"}, "Haemophilus influenzae [17]": {"system": "Haemophilus influenzae", "test": "Antibacterial activity against ROB-1 producing ICE- negative Haemophilus influenzae F3 by Etest method"}, "Haemophilus influenzae [18]": {"system": "Haemophilus influenzae", "test": "Antibacterial activity against ROB-1 producing ICE- negative Haemophilus influenzae F3 by broth microdilution method"}, "Haemophilus influenzae [19]": {"system": "Haemophilus influenzae", "test": "Antibacterial activity against ROB-1 and TEM-1 producing ICE- positive Haemophilus influenzae F54 harboring V489G, M503R, R517H, V547I and N569S mutations in PBP3 by Etest method"}, "Haemophilus influenzae [20]": {"system": "Haemophilus influenzae", "test": "Antibacterial activity against ROB-1 producing ICE- negative Haemophilus influenzae F50 by broth microdilution method"}, "Haemophilus influenzae [21]": {"system": "Haemophilus influenzae", "test": "Antibacterial activity against ROB-1 producing ICE- positive Haemophilus influenzae F54 harboring V489G, M503R, R517H, V547I and N569S mutations in PBP3 by broth microdilution method"}, "Haemophilus influenzae [22]": {"system": "Haemophilus influenzae", "test": "Antibacterial activity against ROB-1 and TEM-1 producing ICE- positive Haemophilus influenzae F47 by Etest method"}, "Haemophilus influenzae [23]": {"system": "Haemophilus influenzae", "test": "Antibacterial activity against ROB-1 producing ICE- negative Haemophilus influenzae H62 by Etest method"}, "Haemophilus influenzae [24]": {"system": "Haemophilus influenzae", "test": "Antibacterial activity against ROB-1 producing ICE- positive Haemophilus influenzae F48 by broth microdilution method"}, "Haemophilus influenzae [25]": {"system": "Haemophilus influenzae", "test": "Antibacterial activity against ROB-1 and TEM-1 producing ICE- positive Haemophilus influenzae F52 by Etest method"}, "Haemophilus influenzae [26]": {"system": "Haemophilus influenzae", "test": "Antibacterial activity against […] by broth microdilution method"}}, "data": [{"smiles": "N[C@@H](C(=O)N[C@@H]1C(=O)N2C(C(=O)O)=C(Cl)CS[C@H]12)c1ccccc1", "note": "[CEFACLOR ANHYDROUS]", "values": [{"measurement": "MIC", "setting": "Haemophilus influenzae [1]", "value": 32, "unit": "µg/mL"}, {"measurement": "MIC", "setting": "Haemophilus influenzae [2]", "value": 4, "unit": "µg/mL"}, {"measurement": "MIC", "setting": "Haemophilus influenzae [3]", "value": 6, "unit": "µg/mL"}, {"measurement": "MIC", "setting": "Haemophilus influenzae [4]", "value": 24, "unit": "µg/mL"}, {"measurement": "MIC", "setting": "Haemophilus influenzae [5]", "value": 16, "unit": "µg/mL"}, {"measurement": "MIC", "setting": "Haemophilus influenzae [6]", "value": 32, "unit": "µg/mL"}, {"measurement": "MIC", "setting": "Haemophilus influenzae [7]", "value": 2, "unit": "µg/mL"}, {"measurement": "MIC", "setting": "Haemophilus influenzae [8]", "value": 64, "unit": "µg/mL"}, {"measurement": "MIC", "setting": "Haemophilus influenzae [9]", "value": 2, "unit": "µg/mL"}, {"measurement": "MIC", "setting": "Haemophilus influenzae [10]", "value": 16, "unit": "µg/mL"}, {"measurement": "MIC", "setting": "Haemophilus influenzae [11]", "value": 32, "unit": "µg/mL"}, {"measurement": "MIC", "setting": "Haemophilus influenzae [12]", "value": 16, "unit": "µg/mL"}, {"measurement": "MIC", "setting": "Haemophilus influenzae [13]", "value": 32, "unit": "µg/mL"}, {"measurement": "MIC", "setting": "Haemophilus influenzae [14]", "value": 0.5, "unit": "µg/mL"}, {"measurement": "MIC", "setting": "Haemophilus influenzae [15]", "value": 4, "unit": "µg/mL"}, {"measurement": "MIC", "setting": "Haemophilus influenzae [16]", "value": 64, "unit": "µg/mL"}, {"measurement": "MIC", "setting": "Haemophilus influenzae [17]", "value": 4, "unit": "µg/mL"}, {"measurement": "MIC", "setting": "Haemophilus influenzae [18]", "value": 16, "unit": "µg/mL"}, {"measurement": "MIC", "setting": "Haemophilus influenzae [19]", "value": 32, "unit": "µg/mL"}, {"measurement": "MIC", "setting": "Haemophilus influenzae [20]", "value": 16, "unit": "µg/mL"}, {"measurement": "MIC", "setting": "Haemophilus influenzae [21]", "value": 64, "unit": "µg/mL"}, {"measurement": "MIC", "setting": "Haemophilus influenzae [22]", "value": 4, "unit": "µg/mL"}, {"measurement": "MIC", "setting": "Haemophilus influenzae [23]", "value": 6, "unit": "µg/mL"}, {"measurement": "MIC", "setting": "Haemophilus influenzae [24]", "value": 16, "unit": "µg/mL"}, {"measurement": "MIC", "setting": "Haemophilus influenzae [25]", "value": 6, "unit": "µg/mL"}, {"measurement": "MIC", "setting": "Haemophilus influenzae [26]", "value": 1, "unit": "µg/mL"}]}]}
